Experimental data: ChEMBL document CHEMBL3046598, “In vitro antimicrobial and molecular docking of dichloro substituted benzoxazole derivatives” (2012)
≈ marks a conversion by molar mass, not a printed value.

Tests used:
Assay type in all cases: functional
Staphylococcus aureus = experiment: Antibacterial activity against Staphylococcus aureus NCIM 5022 after 24 hr by agar well diffusion method; conditions: NCIM 5022, 24 h
Salmonella typhi = experiment: Antibacterial activity against Salmonella enterica subsp. enterica serovar Typhi ATCC 19430 after 24 hr by agar well diffusion method; conditions: ATCC 19430, 24 h
Proteus vulgaris = experiment: Antibacterial activity against Proteus vulgaris NCIM 2857 after 24 hr by agar well diffusion method; conditions: NCIM 2857, 24 h
Pseudomonas aeruginosa = experiment: Antibacterial activity against Pseudomonas aeruginosa NCIM 2945 after 24 hr by agar well diffusion method; conditions: NCIM 2945, 24 h
Escherichia coli = experiment: Antibacterial activity against Escherichia coli NCIM 5051 after 24 hr by agar well diffusion method; conditions: NCIM 5051, 24 h
Bacillus subtilis = experiment: Antibacterial activity against Bacillus subtilis NCIM 2920 after 24 hr by agar well diffusion method; conditions: NCIM 2920, 24 h

Compound: Sc1nc2cc(Cl)cc(Cl)c2o1
- MIC (Staphylococcus aureus): 25 µg/mL (≈ 114 µM)
- MIC (Salmonella typhi): 50 µg/mL (≈ 227 µM)
- MIC (Proteus vulgaris): 3.12 µg/mL (≈ 14.2 µM)
- MIC (Pseudomonas aeruginosa): 3.12 µg/mL (≈ 14.2 µM)
- MIC (Escherichia coli): 3.12 µg/mL (≈ 14.2 µM)
- MIC (Bacillus subtilis): 6.25 µg/mL (≈ 28.4 µM)

Compound: CCOC(=O)CSc1nc2cc(Cl)cc(Cl)c2o1
- MIC (Staphylococcus aureus): 25 µg/mL (≈ 81.7 µM)
- MIC (Proteus vulgaris): 6.25 µg/mL (≈ 20.4 µM)
- MIC (Pseudomonas aeruginosa): 3.12 µg/mL (≈ 10.2 µM)
- MIC (Escherichia coli): 6.25 µg/mL (≈ 20.4 µM)
- MIC (Bacillus subtilis): 3.12 µg/mL (≈ 10.2 µM)

Compound: NNc1nc2cc(Cl)cc(Cl)c2o1
- MIC (Staphylococcus aureus): 6.25 µg/mL (≈ 28.7 µM)
- MIC (Proteus vulgaris): 3.12 µg/mL (≈ 14.3 µM)
- MIC (Escherichia coli): 50 µg/mL (≈ 229 µM)
- MIC (Bacillus subtilis): 6.25 µg/mL (≈ 28.7 µM)

Compound: S=c1[nH]nc2oc3c(Cl)cc(Cl)cc3n12
- MIC (Staphylococcus aureus): 3.12 µg/mL (≈ 12 µM)
- MIC (Salmonella typhi): 50 µg/mL (≈ 192 µM)
- MIC (Proteus vulgaris): 6.25 µg/mL (≈ 24 µM)
- MIC (Pseudomonas aeruginosa): 3.12 µg/mL (≈ 12 µM)
- MIC (Escherichia coli): 3.12 µg/mL (≈ 12 µM)
- MIC (Bacillus subtilis): 3.12 µg/mL (≈ 12 µM)

Compound: CCOC(=O)CSc1nnc2oc3c(Cl)cc(Cl)cc3n12
- MIC (Staphylococcus aureus): 6.25 µg/mL (≈ 18.1 µM)
- MIC (Salmonella typhi): 50 µg/mL (≈ 144 µM)
- MIC (Proteus vulgaris): 3.12 µg/mL (≈ 9.03 µM)
- MIC (Pseudomonas aeruginosa): 3.12 µg/mL (≈ 9.03 µM)
- MIC (Escherichia coli): 3.12 µg/mL (≈ 9.03 µM)
- MIC (Bacillus subtilis): 3.12 µg/mL (≈ 9.03 µM)

Compound: O=[N+]([O-])c1ccc(NCn2nc3oc4c(Cl)cc(Cl)cc4n3c2=S)cc1
- MIC (Staphylococcus aureus): 3.12 µg/mL (≈ 7.62 µM)
- MIC (Proteus vulgaris): 6.25 µg/mL (≈ 15.2 µM)
- MIC (Pseudomonas aeruginosa): 3.12 µg/mL (≈ 7.62 µM)
- MIC (Bacillus subtilis): 6.25 µg/mL (≈ 15.2 µM)

Compound: O=C(O)c1cn(C2CC2)c2cc(N3CCNCC3)c(F)cc2c1=O [CIPROFLOXACIN]
- MIC (Staphylococcus aureus): 3.12 µg/mL (≈ 9.43 µM)
- MIC (Salmonella typhi): 6.25 µg/mL (≈ 18.9 µM)
- MIC (Proteus vulgaris): 3.12 µg/mL (≈ 9.43 µM)
- MIC (Pseudomonas aeruginosa): 3.12 µg/mL (≈ 9.43 µM)
- MIC (Escherichia coli): 3.12 µg/mL (≈ 9.43 µM)
- MIC (Bacillus subtilis): 3.12 µg/mL (≈ 9.43 µM)
